Entries after “also recorded” stand apart in the source; their conditions may differ.
Experiments:
human M5 mAChR = molecular target: T1, human M5 mAChR (Homo sapiens, UniProt P08912); assay: [3H]NMS binding, CHO cell membranes expressing human M5 mAChR
T1 sequence (P08912 1-532): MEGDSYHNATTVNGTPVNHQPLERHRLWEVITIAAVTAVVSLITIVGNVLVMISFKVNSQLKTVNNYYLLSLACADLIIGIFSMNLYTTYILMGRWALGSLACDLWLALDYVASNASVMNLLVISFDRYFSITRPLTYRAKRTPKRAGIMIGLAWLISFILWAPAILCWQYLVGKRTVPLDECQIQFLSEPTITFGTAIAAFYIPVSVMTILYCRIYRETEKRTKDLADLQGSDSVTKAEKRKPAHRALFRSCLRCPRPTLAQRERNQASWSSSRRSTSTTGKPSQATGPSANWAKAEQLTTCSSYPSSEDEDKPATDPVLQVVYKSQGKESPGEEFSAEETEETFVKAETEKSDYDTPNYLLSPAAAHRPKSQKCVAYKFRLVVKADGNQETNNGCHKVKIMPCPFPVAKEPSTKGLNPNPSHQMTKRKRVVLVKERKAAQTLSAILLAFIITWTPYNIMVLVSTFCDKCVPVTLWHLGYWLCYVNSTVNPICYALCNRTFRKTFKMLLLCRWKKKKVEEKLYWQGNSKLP

mAChRs = assay: [3H]DA release assay, superfused rat striatal slices
human M3 mAChR = human M3 mAChR (Homo sapiens, UniProt P20309); settings: [3H]NMS binding assay; ref [36],[43]; cited from earlier work
M3 mAChR = settings: ref [36],[43]; cited from earlier work

Sequence of human M3 mAChR (P20309 whole entry): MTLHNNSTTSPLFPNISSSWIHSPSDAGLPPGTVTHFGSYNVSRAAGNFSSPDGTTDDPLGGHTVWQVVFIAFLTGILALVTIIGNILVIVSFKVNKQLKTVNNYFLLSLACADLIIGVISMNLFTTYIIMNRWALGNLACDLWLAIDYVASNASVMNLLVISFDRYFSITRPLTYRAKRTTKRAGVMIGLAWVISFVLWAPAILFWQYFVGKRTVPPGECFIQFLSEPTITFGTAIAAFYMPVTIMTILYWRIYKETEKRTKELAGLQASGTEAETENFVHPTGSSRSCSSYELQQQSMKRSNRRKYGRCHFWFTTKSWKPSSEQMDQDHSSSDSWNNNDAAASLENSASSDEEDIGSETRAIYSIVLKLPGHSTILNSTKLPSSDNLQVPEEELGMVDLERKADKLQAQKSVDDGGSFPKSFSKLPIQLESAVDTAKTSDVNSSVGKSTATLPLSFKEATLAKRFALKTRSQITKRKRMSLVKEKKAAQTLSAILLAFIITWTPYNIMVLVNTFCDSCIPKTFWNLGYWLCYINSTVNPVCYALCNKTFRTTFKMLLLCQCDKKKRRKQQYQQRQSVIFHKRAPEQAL

SMILES | selectivity for M3 over M2 (human M3 mAChR) | effect on carbachol-induced contraction of the isolated rat tracheal muscle (M3 mAChR) | other results
O=C(OC1CN2CCC1CC2)N(CCc1ccc(F)cc1)c1ccccc1 (racemic) [Compound 3c, (±)-quinuclidin-3-yl-(4-fluorophenethyl)(phenyl)carbamate] |  |  | fold higher affinity for M5 mAChRs compared to compound 1 (human M5 mAChR): 1200 fold; effect on oxotremorine-evoked [3H]DA overflow (mAChRs; oxotremorine 100 μM, 3c 0.1, 1, 10 μM, significant at 10 μM): augmented oxotremorine-evoked [^3H]DA overflow; also recorded: augmented release evoked by oxotremorine; also recorded: augmented oxotremorine-evoked DA release
O=C(NCC1CCNCC1)[C@H]1CCCN1C(=O)[C@@H]1C[C@@H](O)CN1C(=O)CC(c1ccc(F)cc1)(c1ccc(F)cc1)c1ccc(F)cc1 [compound 14a, (2R)-1-((2S,4R)-4-hydroxy-1-[3,3,3-tris(4-fluoro-phenyl)propanoyl]-pyrrolidine-2-yl)carbonyl-N-(4-piperidinyl-methyl)pyrrolidine-2-carboxamide] | 1600 fold | inhibition | 
Nc1cccc(CN2CCC(NC(=O)[C@](O)(c3ccccc3)[C@@H]3CCC(F)(F)C3)CC2)n1 [compound A, (2R)-N-[1-(6-aminopyridin-2-ylmethyl)piperidin-4-yl]-2-[(1R)-3,3-difluorocyclopentyl]-2-hydroxy-2-phenylacetamide] | 193 fold | inhibition | 
O=C1CCCN1CC#CCN1CCCC1 [oxotremorine] |  |  | effect on [3H]DA overflow compared to control (mAChRs; oxotremorine 100 μM): increased [^3H]DA overflow
CN1[C@@H]2C[C@H](OC(=O)[C@H](CO)c3ccccc3)C[C@H]1[C@@H]1O[C@@H]12 [scopolamine] |  |  | effect on 3c-evoked [3H]DA overflow (mAChRs; scopolamine 10 μM, 3c 10 μM): inhibited

Reference: paper PMC7160324 (Bioorganic & medicinal chemistry letters, 2018)
